According to PubChem BioAssay (NCI):
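Each compound was tested at five concentrations against cells in 96-well plates for 48 hours. GI50 is the concentration that inhibits growth by half. TGI denotes the concentration required for complete inhibition of growth.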

Columns and labels:
Experiment in all cases: NCI-60 cell line screen, 48 h
SNB-19 CNS = test system: SNB-19 CNS
NCI-H522 lung = test system: NCI-H522 lung
786-0 renal = test system: 786-0 renal
MDA-MB-435 = test system: MDA-MB-435
SF-268 CNS = test system: SF-268 CNS
MCF7 breast = test system: MCF7 breast
HT29 colon = test system: HT29 colon
HCC-2998 colon = test system: HCC-2998 colon
BT-549 breast = test system: BT-549 breast
T-47D breast = test system: T-47D breast
COLO 205 colon = test system: COLO 205 colon
RPMI-8226 leukemia = test system: RPMI-8226 leukemia
OVCAR-3 ovarian = test system: OVCAR-3 ovarian
HOP-92 NSCLC = test system: HOP-92 NSCLC
U251 CNS = test system: U251 CNS
M14 melanoma = test system: M14 melanoma
NCI/ADR-RES ovarian = test system: NCI/ADR-RES ovarian
SN12C renal = test system: SN12C renal
CAKI-1 renal = test system: CAKI-1 renal
UO-31 renal = test system: UO-31 renal
OVCAR-5 ovarian = test system: OVCAR-5 ovarian
UACC-257 melanoma = test system: UACC-257 melanoma
KM12 colon = test system: KM12 colon
UACC-62 melanoma = test system: UACC-62 melanoma
NCI-H226 lung = test system: NCI-H226 lung
MALME-3M melanoma = test system: MALME-3M melanoma
OVCAR-4 ovarian = test system: OVCAR-4 ovarian
SR leukemia = test system: SR leukemia
HCT-15 colon = test system: HCT-15 colon
HCT-116 colon = test system: HCT-116 colon
K-562 leukemia = test system: K-562 leukemia
SF-295 CNS = test system: SF-295 CNS
HS 578T breast = test system: HS 578T breast
SNB-75 CNS = test system: SNB-75 CNS
SK-MEL-2 melanoma = test system: SK-MEL-2 melanoma
MOLT-4 leukemia = test system: MOLT-4 leukemia
SK-OV-3 ovarian = test system: SK-OV-3 ovarian
A549 NSCLC = test system: A549 NSCLC
NCI-H460 lung = test system: NCI-H460 lung
TK-10 renal = test system: TK-10 renal
OVCAR-8 ovarian = test system: OVCAR-8 ovarian
NCI-H23 lung = test system: NCI-H23 lung
HL-60(TB) leukemia = test system: HL-60(TB) leukemia
A498 renal = test system: A498 renal
PC-3 prostate = test system: PC-3 prostate
SW-620 colon = test system: SW-620 colon
DU-145 prostate = test system: DU-145 prostate
ACHN renal = test system: ACHN renal
HOP-62 NSCLC = test system: HOP-62 NSCLC
IGROV1 ovarian = test system: IGROV1 ovarian
SF-539 CNS = test system: SF-539 CNS
SK-MEL-28 melanoma = test system: SK-MEL-28 melanoma
LOX IMVI melanoma = test system: LOX IMVI melanoma
MDA-MB-231 breast = test system: MDA-MB-231 breast
RXF 393 renal = test system: RXF 393 renal
SK-MEL-5 melanoma = test system: SK-MEL-5 melanoma
CCRF-CEM leukemia = test system: CCRF-CEM leukemia

Compound: CC(C)C[C@H](NC(=O)CCn1ccc2ncccc2c1=O)B(O)O
- GI50 (SNB-19 CNS): 32.6 µM
- TGI (SNB-19 CNS): > 100 µM
- GI50 (NCI-H522 lung): 4.26 µM
- TGI (NCI-H522 lung): 25 µM
- GI50 (786-0 renal): 14 µM
- TGI (786-0 renal): > 100 µM
- GI50 (MDA-MB-435): 2.6 µM
- TGI (MDA-MB-435): 8.86 µM
- GI50 (SF-268 CNS): 12.6 µM
- TGI (SF-268 CNS): > 61.2 µM
- GI50 (MCF7 breast): 3.88 µM
- TGI (MCF7 breast): > 100 µM
- GI50 (HT29 colon): 6.28 µM
- TGI (HT29 colon): > 100 µM
- GI50 (HCC-2998 colon): 12.9 µM
- TGI (HCC-2998 colon): 30.2 µM
- GI50 (BT-549 breast): 4.86 µM
- TGI (BT-549 breast): 23.1 µM
- GI50 (T-47D breast): 5.31 µM
- TGI (T-47D breast): > 55 µM
- GI50 (COLO 205 colon): 10.3 µM
- TGI (COLO 205 colon): > 100 µM
- GI50 (RPMI-8226 leukemia): 2.82 µM
- TGI (RPMI-8226 leukemia): > 27 µM
- GI50 (OVCAR-3 ovarian): 4.1 µM
- TGI (OVCAR-3 ovarian): 20.6 µM
- GI50 (HOP-92 NSCLC): 14.5 µM
- TGI (HOP-92 NSCLC): 60.3 µM
- GI50 (U251 CNS): 24.9 µM
- TGI (U251 CNS): > 100 µM
- GI50 (M14 melanoma): 5.45 µM
- TGI (M14 melanoma): > 47.3 µM
- GI50 (NCI/ADR-RES ovarian): > 100 µM
- TGI (NCI/ADR-RES ovarian): > 100 µM
- GI50 (SN12C renal): 18.9 µM
- TGI (SN12C renal): > 100 µM
- GI50 (CAKI-1 renal): 21.6 µM
- TGI (CAKI-1 renal): > 100 µM
- GI50 (UO-31 renal): 19.6 µM
- TGI (UO-31 renal): > 100 µM
- GI50 (OVCAR-5 ovarian): 23.2 µM
- TGI (OVCAR-5 ovarian): > 100 µM
- GI50 (UACC-257 melanoma): 8.25 µM
- TGI (UACC-257 melanoma): 44.1 µM
- GI50 (KM12 colon): 14.6 µM
- TGI (KM12 colon): 37.7 µM
- GI50 (UACC-62 melanoma): 5.93 µM
- TGI (UACC-62 melanoma): 61.7 µM
- GI50 (NCI-H226 lung): 2.22 µM
- TGI (NCI-H226 lung): 6.13 µM
- GI50 (MALME-3M melanoma): 5.2 µM
- TGI (MALME-3M melanoma): 48.9 µM
- GI50 (OVCAR-4 ovarian): 24.9 µM
- TGI (OVCAR-4 ovarian): > 100 µM
- GI50 (SR leukemia): 3.08 µM
- TGI (SR leukemia): > 100 µM
- GI50 (HCT-15 colon): 28.1 µM
- TGI (HCT-15 colon): > 100 µM
- GI50 (HCT-116 colon): 3.64 µM
- TGI (HCT-116 colon): 19 µM
- GI50 (K-562 leukemia): 13.2 µM
- TGI (K-562 leukemia): > 100 µM
- GI50 (SF-295 CNS): 11.5 µM
- TGI (SF-295 CNS): 43.9 µM
- GI50 (HS 578T breast): 13.2 µM
- TGI (HS 578T breast): > 71.7 µM
- GI50 (SNB-75 CNS): 14.5 µM
- TGI (SNB-75 CNS): 47.5 µM
- GI50 (SK-MEL-2 melanoma): 11 µM
- TGI (SK-MEL-2 melanoma): > 79.2 µM
- GI50 (MOLT-4 leukemia): 2.9 µM
- TGI (MOLT-4 leukemia): > 28.7 µM
- GI50 (SK-OV-3 ovarian): > 66 µM
- TGI (SK-OV-3 ovarian): > 100 µM
- GI50 (A549 NSCLC): 36.1 µM
- TGI (A549 NSCLC): > 100 µM
- GI50 (NCI-H460 lung): 31.9 µM
- TGI (NCI-H460 lung): > 100 µM
- GI50 (TK-10 renal): 6.44 µM
- TGI (TK-10 renal): 61.8 µM
- GI50 (OVCAR-8 ovarian): 27.4 µM
- TGI (OVCAR-8 ovarian): > 100 µM
- GI50 (NCI-H23 lung): 14.9 µM
- TGI (NCI-H23 lung): > 100 µM
- GI50 (HL-60(TB) leukemia): 6.88 µM
- TGI (HL-60(TB) leukemia): > 100 µM
- GI50 (A498 renal): 2.66 µM
- TGI (A498 renal): 21.3 µM
- GI50 (PC-3 prostate): 35.2 µM
- TGI (PC-3 prostate): > 100 µM
- GI50 (SW-620 colon): 4.23 µM
- TGI (SW-620 colon): > 45.9 µM
- GI50 (DU-145 prostate): 19.6 µM
- TGI (DU-145 prostate): > 100 µM
- GI50 (ACHN renal): 9.45 µM
- TGI (ACHN renal): > 100 µM
- GI50 (HOP-62 NSCLC): 21.7 µM
- TGI (HOP-62 NSCLC): > 79 µM
- GI50 (IGROV1 ovarian): 36.5 µM
- TGI (IGROV1 ovarian): > 94.3 µM
- GI50 (SF-539 CNS): 2.96 µM
- TGI (SF-539 CNS): 9.03 µM
- GI50 (SK-MEL-28 melanoma): 6.8 µM
- TGI (SK-MEL-28 melanoma): > 76.7 µM
- GI50 (LOX IMVI melanoma): 4.53 µM
- TGI (LOX IMVI melanoma): 18.7 µM
- GI50 (MDA-MB-231 breast): 9.73 µM
- TGI (MDA-MB-231 breast): 46.6 µM
- GI50 (RXF 393 renal): 3.54 µM
- TGI (RXF 393 renal): 15.2 µM
- GI50 (SK-MEL-5 melanoma): 3.97 µM
- TGI (SK-MEL-5 melanoma): 19.2 µM
- GI50 (CCRF-CEM leukemia): 0.308 µM
- TGI (CCRF-CEM leukemia): > 26.5 µM
